Measured values from PMC2074379 (British Journal of Cancer, 1996).
Entries after “also recorded” stand apart in the source; their conditions may differ. Residues, ends and D or L forms follow the SMILES beside them.

Tests used:
[1] = ref Cummings et al., 1994; cited from earlier work
Excerpt: (§1) British Journal of Cancer (1996) 73, 715-720 ? 1996 Stockton Press All rights reserved 0007-0920/96 $12.00 % Metabolism of the broad-spectrum neuropeptide growth factor antagonist: ID-Arg1, D-Phe5, D-Trp7'9, Leull"-substance P DA Jones', J Cummings', SP Langdon', AJ Maclellan', T Higgins2, E Rozengurt2 and JF Smyth' 'Imperial Cancer Research Fund, Medical Oncology Unit, Western General Hospital, Edinburgh EH4 2XU; 2Imperial Cancer Research Fund, PO Box 123, Lincoln's Inn Fields, London WC2A 3PX, UK. Summary Broad-spectrum neuropeptide growth factor antagonists, such as [D-Arg', D-Phe5, D-Trp7' ...

[2] = Stability of antagonist D and antagonist G in 1% (w/v) mouse liver homogenate; assay type: in vitro ADME; conditions: for amount of antagonist remaining after 1 h of incubation: 50 nmol in 1.0 ml 1% w/v mouse liver homogenate in PBS pH 7.4, 37°C, HPLC with fluorescence detection, corrected for extraction efficiency (94.4% D, 94% G), three experiments; for amount of metabolite accumulated after 1 h: from 50 nmol parent antagonist in 1% mouse liver homogenate, PBS pH 7.4, 37°C, HPLC fluorescence, extraction efficiency 94.4% (D metabolites), 94% (G metabolites) assumed, mean of three experiments
Excerpt: British Journal of Cancer (1996) 73, 715-720 ? 1996 Stockton Press All rights reserved 0007-0920/96 $12.00 % Metabolism of the broad-spectrum neuropeptide growth factor antagonist: ID-Arg1, D-Phe5, D-Trp7'9, Leull"-substance P DA Jones', J Cummings', SP Langdon', AJ Maclellan', T Higgins2, E Rozengurt2 and JF Smyth' 'Imperial Cancer Research Fund, Medical Oncology Unit, Western General Hospital, Edinburgh EH4 2XU; 2Imperial Cancer Research Fund, PO Box 123, Lincoln's Inn Fields, London WC2A 3PX, UK. Summary Broad-spectrum neuropeptide growth factor antagonists, such as [D-Arg', D-Phe5, D-Trp7'9, Leu']substance P (antagonist D) and [Arg6, D-Trp7'9, NmePhe8]substance p(6- 11) (antagonist G), are currently being investigated as possible anti-tumour agents. […] Keywords: broad spectrum; neuropeptide; antagonist; metabolism Successful, long-term treatment of small-cell lung cancer (SCLC) remains a major therapeutic problem. […] The disease is characterised by its ability to secrete and to be growth stimulated by a variety of neuropeptide growth factors that include bombesin/gastrin- releasing peptide (GRP), vasopressin, bradykinin, cholecys- tokinin and neurotensin (Woll and Rozengut, 1989). […] These agents include [D- Arg'-D-Phe5-D-Trp7'9-Leu' 1]-substance P and [Arg6-D-Trp7'9- NmePhe8]-substance P(6-11) (code named antagonists D and G respectively) (Sethi et al., 1992). […] In the near future antagonist G will be the first of this new class of compound, broad- spectrum neuropeptide growth factor antagonists, to enter a phase I clinical trial for the potential treatment of SCLC. […] The research reported here describes the characterisation of the in vitro metabolism of antagonist D, comparing its metabolic stability to that of antagonist G, which we have previously reported (Jones et al., 1995). […] Materials and methods Antagonist D was purchased from Peninsula Laboratories (St Helens, UK), Antagonist G was supplied by Peptech (Europe) (Copenhagen, Denmark). H-D-Arg-Pro-Lys-Pro-D- Phe-Gln-D-Trp-Phe-D-Trp-Leu-Leu-OH (metabolite 1) and H-D-Arg-Pro-Lys-Pro-D-Phe-Gln-D-Trp-Phe-D-Trp-Leu-OH (metabolite 2) were prepared in-house using conventional Fmoc solid-phase peptide synthesis procediures. Reagents for peptide synthesis were purchased from NovaBiochem (UK) (Nottingham, UK). Acetic acid and ammonium acetate were from BDH Chemicals (Poole, UK). Methanol and acetoni- trile were high-performance liquid chromatography (HPLC) grade from Rathburn Chemicals (Walkerburn, UK). Tri- fluoroacetic acid was from Sigma Chemical (Poole, UK). All other chemicals Were of the highest grade commercially available and used without further purification. Water was deionised and bidistilled in a quartz glass still. HPLC The HPLC system used consisted of two 510 HPLC pumps, a 712 WISP autosampler, a TCM column heater (all Waters, Northwich, UK) and a model 1046A fluorescence detector (Hewlett Packard, Walborn, Germany). A Waters MAXIMA 820 computer package was used with a Waters system interface module to control the system operation and collect and integrate data. Separation was achieved on a Prime- sphere 5 gm (250 x 4.6 mm) column (Phenomenex, Maccles- field, UK) using isocratic elution with 45% (v/v) acetonitrile in 0.1% (v/v) aqueous triflouroacetic acid (TFA) at 450C. Detection of the peptides was by fluorescence (Excitation 233 nm Emission 395 nm).

[3] = test system: SCLC and non-SCLC cell lines; conditions: SCLC and non-SCLC cell lines in vitro; ref Reeve and Bleehan, 1994; cited from earlier work
Excerpt: as §1

SCLC cells = conditions: ref Woll and Rozengurt, 1988; cited from earlier work
Excerpt: as §1

[4] = test system: SCLC xenografts (WX322 and H69); conditions: WX322 and H69 xenografts in nude mice; ref Langdon et al., 1992; cited from earlier work
Excerpt: as §1

[5] = test system: non-SCLC, ovarian and cervical cancer cell lines; conditions: ref Everard et al., 1992; cited from earlier work
Excerpt: as §1

[6] = test system: SCLC xenografts (HC12 and ICR-SC112); conditions: ref Everard et al., 1993; cited from earlier work
Excerpt: as §1

[7] = test system: Swiss 3T3 cells stimulated by vasopressin; assay: [3H]thymidine uptake by Swiss 3T3 cells after mitogenic stimulation by vasopressin; assay type: cell-based, murine; conditions: vasopressin 1 nM, 40 h, mean of duplicate samples
[8] = test system: Swiss 3T3 cells stimulated by bombesin; assay: [3H]thymidine uptake by Swiss 3T3 cells after mitogenic stimulation by bombesin; assay type: cell-based, murine; conditions: bombesin 1 nM, insulin 1 µg/ml, 40 h, mean of duplicate samples
[9] = test system: Swiss 3T3 cells stimulated by bradykinin; assay: [3H]thymidine uptake by Swiss 3T3 cells after mitogenic stimulation by bradykinin; assay type: cell-based, murine; conditions: bradykinin 1 nM, insulin 1 µg/ml, 40 h, mean of duplicate samples
[10] = 1% (w/v) mouse liver homogenate in PBS (pH 7.4); conditions: 37?C, up to 1 h
human plasma = conditions: cited from earlier work
[11] = 2% w/v mouse liver homogenate in PBS (pH 7.4); conditions: 37?C, up to 2 h

In the case of `CC(C)C[C@H](NC(=O)[C@H](CC(C)C)NC(=O)[C@@H](Cc1c[nH]c2ccccc12)NC(=O)[C@H](Cc1ccccc1)NC(=O)[C@@H](Cc1c[nH]c2ccccc12)NC(=O)[C@H](CCC(N)=O)NC(=O)[C@@H](Cc1ccccc1)NC(=O)[C@@H]1CCCN1C(=O)[C@H](CCCCN)NC(=O)[C@@H]1CCCN1C(=O)[C@H](N)CCCN=C(N)N)C(N)=O` [antagonist D, [D-Arg1, D-Phe5, D-Trp7,9, Leu11]substance P] (HELM PEPTIDE1{[dR].P.K.P.[dF].Q.[dW].F.[dW].L.L.[am]}$$$$V2.0), the “stability in human plasma” value [1] is given as “stable”, the “amount of antagonist remaining after 1 h of incubation” value [2] is given as 30.8 nmol and the “stability relative to antagonist G” value ([2]; 1% mouse liver homogenate, 37°C (Figure 2)) is given as “almost twice as stable as antagonist G”. The “rate of disappearance relative to antagonist G” value ([2]; over the first 30 min, 1% mouse liver homogenate, 37°C) was “half the rate of antagonist G”.

In the case of `CC(C)C[C@H](NC(=O)[C@H](CC(C)C)NC(=O)[C@@H](Cc1c[nH]c2ccccc12)NC(=O)[C@H](Cc1ccccc1)NC(=O)[C@@H](Cc1c[nH]c2ccccc12)NC(=O)[C@H](CCC(N)=O)NC(=O)[C@@H](Cc1ccccc1)NC(=O)[C@@H]1CCCN1C(=O)[C@H](CCCCN)NC(=O)[C@@H]1CCCN1C(=O)[C@H](N)CCCNC(=N)N)C(N)=O` [antagonist D, [D-Arg1, D-Phe5, D-Trp7,9, Leu11]substance P] (HELM PEPTIDE1{[dR].P.K.P.[dF].Q.[dW].F.[dW].L.L.[am]}$$$$V2.0), the induction of apoptosis [3] is given as “induce apoptosis”, the “potency against SCLC cells in vitro relative to antagonist G” value (SCLC cells) is given as “equipotent to antagonist G” and the “growth of SCLC xenografts” value [4] is given as “inhibit the growth”. For the same molecule, the “in vitro activity against cancer cell lines” value [5] was “activity”, the “activity against other SCLC xenografts in vivo” value [6] was “activity” and the IC50 ([7]; [3H]thymidine uptake, read-out: IC50 value, vasopressin stimulated growth) was under 1000 nM.

For `CSCC[C@H](NC(=O)[C@H](CC(C)C)NC(=O)[C@@H](Cc1c[nH]c2ccccc12)NC(=O)[C@H](Cc1ccccc1)N(C)C(=O)[C@@H](Cc1c[nH]c2ccccc12)NC(=O)[C@@H](N)CCCNC(=N)N)C(N)=O` [antagonist G, [Arg6, D-Trp7,9, NmePhe8]substance P(6-11)] (HELM PEPTIDE1{R.[dW].[meF].[dW].L.M.[am]}$$$$V2.0), the “growth of SCLC xenografts” value [4] is given as “inhibit the growth” and the “amount of antagonist remaining after 1 h of incubation” value [2] is given as 21.1 nmol.

In the case of `CC(C)C[C@H](NC(=O)[C@H](CC(C)C)NC(=O)[C@@H](Cc1c[nH]c2ccccc12)NC(=O)[C@H](Cc1ccccc1)NC(=O)[C@@H](Cc1c[nH]c2ccccc12)NC(=O)[C@H](CCC(N)=O)NC(=O)[C@@H](Cc1ccccc1)NC(=O)[C@@H]1CCCN1C(=O)[C@H](CCCCN)NC(=O)[C@@H]1CCCN1C(=O)[C@H](N)CCCNC(=N)N)C(=O)O` [metabolite 1, H-D-Arg-Pro-Lys-Pro-D-Phe-Gln-D-Trp-Phe-D-Trp-Leu-Leu-OH] (HELM PEPTIDE1{[dR].P.K.P.[dF].Q.[dW].F.[dW].L.L}$$$$V2.0), the “amount of metabolite accumulated after 1 h” value [2] is reported as 9.6 nmol, the “antagonist activity with respect to bombesin (inhibition of [3H]thymidine uptake)” value [8] is reported as “retained none of the antagonist properties” and the “vasopressin antagonist activity (inhibition of [3H]thymidine uptake)” value ([7]; insulin 1 µg/ml) is reported as “inactive”. The “antagonist activity with respect to bradykinin (inhibition of [3H]thymidine uptake)” value [9] was “retained none of the antagonist properties”.

For `CC(C)C[C@H](NC(=O)[C@@H](Cc1c[nH]c2ccccc12)NC(=O)[C@H](Cc1ccccc1)NC(=O)[C@@H](Cc1c[nH]c2ccccc12)NC(=O)[C@H](CCC(N)=O)NC(=O)[C@@H](Cc1ccccc1)NC(=O)[C@@H]1CCCN1C(=O)[C@H](CCCCN)NC(=O)[C@@H]1CCCN1C(=O)[C@H](N)CCCNC(=N)N)C(=O)O` [metabolite 2, H-D-Arg-Pro-Lys-Pro-D-Phe-Gln-D-Trp-Phe-D-Trp-Leu-OH] (HELM PEPTIDE1{[dR].P.K.P.[dF].Q.[dW].F.[dW].L}$$$$V2.0), the “amount of metabolite accumulated after 1 h” value [2] was 12.3 nmol, the “antagonist activity with respect to bombesin (inhibition of [3H]thymidine uptake)” value [8] was “retained none of the antagonist properties” and the “antagonist activity with respect to bradykinin (inhibition of [3H]thymidine uptake)” value [9] was “retained none of the antagonist properties”.

For H-Arg-D-Trp-N"'Phe-D-Trp-Leu-Met-NH,, the cleaved bond [10] was “Met-NH2, major”.

In the case of “H-D-Arg-Pro-Lys-Pro-D-Phe-GIn-D-Trp-Phe-D-Trp-Leu-Leu-NH2”, the not cleaved (human plasma) is given as “stable in human plasma”, the cleaved bond [10] is given as “Leu11-NH2, major; also recorded: Leu10-Leu11, major” and the cleaved bond [11] is given as “Leu11-NH2, major; also recorded: Leu10-Leu11, major”.
